The target of this experiment is T1, GBA2 (Homo sapiens, UniProt Q9HCG7).
T1 sequence (Q9HCG7 1-927): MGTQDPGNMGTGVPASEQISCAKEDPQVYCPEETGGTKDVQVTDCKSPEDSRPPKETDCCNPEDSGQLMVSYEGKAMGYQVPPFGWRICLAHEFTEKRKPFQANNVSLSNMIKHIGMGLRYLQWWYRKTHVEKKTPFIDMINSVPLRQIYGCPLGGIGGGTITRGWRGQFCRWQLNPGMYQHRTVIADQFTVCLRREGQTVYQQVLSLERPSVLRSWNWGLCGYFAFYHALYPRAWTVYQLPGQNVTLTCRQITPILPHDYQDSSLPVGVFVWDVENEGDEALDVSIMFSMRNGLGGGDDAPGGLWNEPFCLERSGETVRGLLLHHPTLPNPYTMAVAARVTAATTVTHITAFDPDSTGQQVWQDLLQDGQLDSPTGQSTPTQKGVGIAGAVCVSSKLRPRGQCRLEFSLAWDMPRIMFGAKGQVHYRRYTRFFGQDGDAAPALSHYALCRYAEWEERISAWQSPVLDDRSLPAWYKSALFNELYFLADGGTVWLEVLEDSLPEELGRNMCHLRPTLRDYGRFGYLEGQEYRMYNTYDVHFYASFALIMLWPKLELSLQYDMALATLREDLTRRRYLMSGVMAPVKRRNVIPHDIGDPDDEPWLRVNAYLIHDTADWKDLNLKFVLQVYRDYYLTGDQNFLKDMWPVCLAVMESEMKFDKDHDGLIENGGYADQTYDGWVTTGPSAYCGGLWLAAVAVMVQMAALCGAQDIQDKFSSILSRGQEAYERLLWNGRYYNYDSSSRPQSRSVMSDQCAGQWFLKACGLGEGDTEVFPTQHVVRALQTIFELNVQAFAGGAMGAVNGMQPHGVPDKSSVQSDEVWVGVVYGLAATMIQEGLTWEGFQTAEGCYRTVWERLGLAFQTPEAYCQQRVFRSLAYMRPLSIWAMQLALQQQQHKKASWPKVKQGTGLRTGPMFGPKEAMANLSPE
Description: In situ labelling of wild-type HEK293T cells, GBA2. It counts as cell-based. Also on record: endogenous in cells; host or cells: wild-type HEK293T. The settings on record: wild-type HEK293T intact cells; 24 h incubation. On the procedure:
Importantly, the GBA2 selectivity of β-D-Araf ABPs 3–5 was maintained during in situ labelling of wild-type HEK293T cells (ESI Fig. S9 ^†). […] Even after 24 h incubation, similar results were obtained: ABP 4 selectively labelled GBA2 at 10 nM, with only slight concomitant GBA1 labelling at concentrations higher than 100 nM (ESI Fig. S10 ^†). Selective GBA2 labelling by ABP 3 and 4 finally was also observed in human retinal pigment epithelial-1 cells (Fig. 5C).
Figure S9. Fluorescent gel images of in situ labelling of wild-type HEK293T cells by β-D-Araf aziridine ABPs 3-5.
β-D-Araf ABPs were firstly incubated with intact wild-type HEK293T cells for 1 or 2.5 h (1st incubation) and then cells were harvested. […]
2.12 Reactivity of β-D-Araf aziridines towards GBA2 orthologue in other species β-D-Araf aziridine ABP 3-5 or ABP 7 was incubated with homogenates of zebrafish (Danio rerio) larvae or mice brain for 1 h at 37 °C. […] The zebrafish homogenates were passed through a desalting column (in the same way as described for the irreversibility evaluation above) to remove interference from biological pigments when scanning at λEX 473 nm and λEM ≥ 510 nm for BODIPY green fluorescence. […]

From PMC11375437, “Selective labelling of GBA2 in cells with fluorescent β-D-arabinofuranosyl cyclitol aziridines” (Chemical Science, 2024) come the findings set out here.

Structures are written as SMILES.

As for `COc1ccc(C2=[N+]3C(=C(CCCCc4cn(CCCCCCCCN5[C@@H]6[C@H](CO)[C@@H](O)[C@H](O)[C@@H]65)nn4)c4ccc(-c5ccc(OC)cc5)n4[B-]3(F)F)C=C2)cc1` (stereo partly shown) [ABP 4], the “Concentration at which GBA2 is selectively labelled in situ” value stood at 10 nM.
